Test results taken from patent US8710068B2, “Method of treating cancer using a survivin inhibitor” (The Trustees Of The University Of Pennsylvania, priority 2009, dated 2014).

What was measured:
HeLa cells [1] = test: Immunofluorescence microscopy of mitosis and spindle formation, HeLa; assay type: cell-based, human
Protocol: FIG. 8 illustrates the effect of S2 on mitotic spindle formation. HeLa cells were treated with S2 or DMSO for 15 hours. The cells were then fixed and subjected to immunostaining using the anti-β-Tubulin (green) and the anti-Survivin (red). Representative fluorescent microscopy images are shown. Note that short microtubule bundles form in S2-treated cells.
(§1) FIG. 9 illustrates the effect of S12 on mitosis. (A) HeLa cells were treated with S12, S2 or DMSO for 15 hours. The cells were then fixed and subjected to immunostaining using antibodies specific for Aurora B (green) and Survivin (red). DNA was stained with DAPI. Chromosome misalignment is indicated with the arrowheads. (B) Percentage of S12-treated cells in mitosis, in metaphase, in anaphase/telophase, or with misaligned chromosomes. (C) Percentage of S2-treated cells in mitosis, in metaphase, in anaphase/telophase, or with misaligned chromosomes. (D) HeLa cells were treated with S12 (10 μg/ml) or DMSO (control) for 15 hours. Cells were examined by PI staining of DNA content by FACS analysis.
(§2) FIG. 17 illustrates (A) FACS analysis of DNA content of HeLa cells treated with SBDO3. Note the accumulation of cells at the G2/M stage. Cell death was also observed (sub-G1 population); (B) Immuno-fluorescence microscopy analysis of cell treated with SBDO3. Note that the microtubule bundles of the mitotic spindle are disorganized. The chromosomes are not aligned properly and cells cannot go through metaphase.
FIG. 19 illustrates immunofluorescence studies of Survivin localization. (A) Untreated HeLa cells were subjected to immunostaining using a monoclonal anti-beta-Tubulin antibody (green) or a polyclonal anti-Survivin antibody (red). Images of cells at various stages of mitosis are shown. (B) HeLa cells were treated with S2 for 6 hours. Cells were immunostained with anti-beta-Tubulin antibody (green) or a polyclonal anti-survivin antibody (red). Note that localization of Survivin to the midbody was not affected by S2.
The effect of S2 and its analogs on the progression of cell cycle was examined by immunofluorescence microscopy. HeLa cells were plated on coverglass and treated with the Survivin-targeting compound S2 (10 μg/ml) or with the solvent DMSO alone for 15 hours. Cells were stained with the anti-β-Tubulin antibody (green) and anti-Survivin antibody (red). S2 can block cell division at the early stage of mitosis (FIG. 8). […] The microtubules in this case are very short, with one end attached to the centrosome and the other end to the kinetochore of the chromosomes (FIG. 8).
We extended the immunofluorescence studies to define the cell stage in the cells that were arrested by S2 or its analogs. Cells were also stained with anti-Aurora B antibody or anti-Survivin antibody in order to determine whether the localization of Survivin or Aurora B proteins are changed by these small molecules. Upon S2 or S12 treatment, we observed that cells accumulate in a stage with condensed chromosomes but without proper alignment of chromosomes on the mitotic plate (FIG. 9). The percentage of cells that progress to metaphase or beyond was reduced by S2 or S12 treatment (FIG. 9). […] Moreover, localization of Survivin to the midbody was also not affected.
Effects of the Survivin-targeting compound S12 on cell cycle progression was examined by immunofluorescence microscopy. HeLa cells were plated on coverglass and treated with S12 (40 μM) or with the solvent DMSO alone for 15 hours. […]

HeLa cells [2] = test: Trypan blue exclusion cell death, synchronized vs unsynchronized HeLa; assay type: cell-based, human
Protocol: FIG. 12 illustrates S12 induction of caspase activation in HeLa cells. (A) HeLa cells were incubated with DMSO (control), S12, Taxol, nocodazole (Noco), or etoposide (Etop) for 12 hours. The cell lysates were analyzed by Western blot using the anti-PARP antibody (top panel), the anti-α-tubulin antibody (middle panel), or the anti-Survivin antibody (bottom panel). (B) S12 causes cell death in a cell cycle dependent manner. HeLa cells, either unsynchronized or synchronized by thymidine treatment were incubated either with S12 or DMSO. Cell death was quantitated by trypan blue exclusion assay.
We wanted to determine if the Survivin-targeting compounds induce cell death during mitosis but could not affect the phenotype or influence in other stages of the cell cycle. To this end, we blocked HeLa cells in the S phase by thymidine treatment and examined whether the cells were susceptible to cell death induced by S12. […] Thus, the current data support the notion that S12 induced death of cells is a consequence of mitotic arrest rather than general cytotoxicity and indicate a unique cell cycle specific functionality of Survivin in this process.

HCT116(p53+/+) cells = test: MTT viability assay, HCT116(p53+/+); assay type: cell-based; conditions: 48 hours
Protocol: FIG. 4 illustrates the effects of S12 on proliferation of p53-positive and p53-negative cancer cells. (A) HCT116(p53+/+) or HCT116(p53−/−) cells were treated with DMSO or S12 at the indicated concentrations for 48 hours. The percentage of viable cells was evaluated by MTT assay.
Thus, inhibition of cell proliferation by S12 is independent of p53 status.

HeLa cells [3] = test: Cell cycle analysis of DNA content by PI staining and FACS, HeLa; assay type: cell-based, human; conditions: HeLa, FACS DNA content
Protocol: FIG. 7 illustrates the effect of S2 or S12 on cell cycle progression. HeLa cells were treated with S2, S12, S10, S1 (control compound), or DMSO (control), propidium iodide (PI) staining and FACS analysis were performed to quantify the DNA content of cells.
as §1, §2
The candidate Survivin-targeting molecules identified by the virtual screen were examined for the ability to inhibit cell proliferation and mitosis. HeLa cells were treated with the compounds at various concentrations for 15 hours followed by examination of the DNA content by FACS analysis. […] The effects of S2 inflicted on cell proliferation and viability are consistent with the anticipated outcome caused by the ablation of Survivin functions. We have extended these studies to test a number of molecules that are structurally similar to S2, including S10, S11, S12 and S13. […] S12 affected cell proliferation and viability, consistent with the anticipated outcome caused by ablation of Survivin functions.
We analyzed distribution of cells in the different stages of the cell cycle by FACS. […] In addition, the inhibitory effect of SBDO3 is dose dependent (FIG. 17A).
We also conducted immuno-fluorescence studies on SBDO3 treated HeLa cells.

O=C(CC1(O)C(=O)Nc2ccc(Br)cc21)c1ccc2c(c1)OCO2 (stereo not shown) [S12]
percentage of cells that progress to metaphase or beyond (HeLa cells [1]; 15 hours): reduced | formation of the mitotic spindle (HeLa cells [1]; 15 hours, immunofluorescence): can cause defects in formation of the mitotic spindle | localization of Survivin or Aurora B to the kinetochore (HeLa cells [1]; immunofluorescence): did not alter | localization of Survivin to the midbody (HeLa cells [1]; immunofluorescence): not affected | mitotic stage at which cells accumulate (HeLa cells [1]; immunofluorescence): arrested by S12 in an early stage of mitosis | cell death of S phase-arrested cells (HeLa cells [2]; HeLa blocked in S phase by thymidine): insensitive | cell death of unsynchronized cells (HeLa cells [2]; unsynchronized HeLa): underwent apoptosis | reduction of cell viability (HCT116(p53+/+) cells): equally effective at reducing cell viability | accumulation of cells in the G2/M stage (HeLa cells [3]; 15 hours): accumulation of cells in the G2/M stage | sub-G1 population (cell death) (HeLa cells [3]): increase of cells in the sub-G1 population
